Source: patent US10207991B2, “Isoindoline compositions and methods for treating neurodegenerative disease” (priority 2014, dated 2019)

Assay: Mouse liver microsome (MLM) stability
Format: in vitro ADME
Experimental: A first pharmacokinetic study was performed in microsomes of mice mouse liver microsomes, MLM) by a commercial contract research organization. The studies were performed according to Obach, R. S et al. (1997) J. Pharmacol. Exp. Ther., 283: 46-58, which is incorporated herein by reference.

Compound	Mouse liver microsomes, MLM t½ [min]
C[C@H](CCc1ccc(O)c(OC(C)(C)C)c1)N1Cc2c(F)ccc(F)c2C1 [60A]	5
C[C@H](CCc1ccc(O)c(OC(C)(C)C)c1)N1Cc2cccc(F)c2C1 [60B]	8
COc1cc(CC[C@@H](C)N2Cc3ccc(Cl)cc3C2)ccc1O [compound 1]	11
COc1cc(CC[C@@H](C)N2Cc3ccc(C(F)(F)F)cc3C2)ccc1O [compound 2]	28
COc1cc(CC[C@@H](C)N2Cc3cc(Cl)c(Cl)cc3C2)ccc1O [compound 3]	21
C[C@H](CCc1ccc(Cl)c(Cl)c1)N1Cc2ccc(C(F)(F)F)cc2C1 [compound 4]	40
C[C@H](CCc1ccc(Cl)c(Cl)c1)N1Cc2cc(Cl)c(Cl)cc2C1 [compound 5]	53
COc1cc(CC[C@@H](C)N2Cc3cc4c(cc3C2)OCO4)ccc1O [compound 6]	20
COc1cc(CC[C@@H](C)N2Cc3cccc(F)c3C2)ccc1O [compound 8]	16
C[C@H](CCc1ccc(Cl)c(Cl)c1)N1Cc2cccc(F)c2C1 [compound 9]	12
C[C@H](CCc1ccc(Cl)c(Cl)c1)N1Cc2cc3c(cc2C1)OCO3 [compound 10]	8
COc1cc2c(cc1OC)CN([C@H](C)CCc1ccc(Cl)c(Cl)c1)C2 [compound 11]	61
C[C@H](CCc1ccc(Cl)c(Cl)c1)N1Cc2ccc(F)cc2C1.Cl [compound 12]	13
Cc1ccc2c(c1)CN([C@H](C)CCc1ccc(Cl)c(Cl)c1)C2 [compound 13]	3
COc1ccc2c(c1)CN([C@H](C)CCc1ccc(Cl)c(Cl)c1)C2.Cl [compound 15]	15
C[C@H](CCc1ccc(Cl)c(Cl)c1)N1Cc2cccc(Cl)c2C1.Cl [compound 16]	12
COc1cc(CCC(C)N2Cc3ccc4ccccc4c3C2)ccc1O.Cl (stereo not drawn) [compound 17]	10
C[C@H](CCc1ccc(Cl)c(Cl)c1)N1Cc2ccc3ccccc3c2C1 [compound 19]	25
COc1cc2c(cc1OC)CN([C@@H](C)CCc1ccc(Cl)c(Cl)c1)C2 [compound 20]	43
C[C@H](CCc1ccc(F)cc1)N1Cc2cccc(F)c2C1 [compound 21]	7
C[C@H](CCc1ccc(F)cc1)N1Cc2ccc(F)cc2C1 [compound 22]	7
C[C@H](CCc1ccc(F)cc1)N1Cc2cc3c(cc2C1)OCO3 [compound 23]	5
C[C@H](CCc1ccc(O)c(OC(F)(F)F)c1)N1Cc2cc3c(cc2C1)OCO3 [compound 24]	5

Compound	Mouse liver microsomes, MLM t½ [min]
CC(C)Oc1cc(CC[C@@H](C)N2Cc3cc4c(cc3C2)OCO4)ccc1O [compound 25]	4
CC(C)Oc1cc(CC[C@@H](C)N2Cc3cccc(F)c3C2)ccc1O [compound 26]	4
CC(C)Oc1cc(CCC(C)(C)N2Cc3cccc(F)c3C2)ccc1O [compound 28]	4
CC(C)Oc1cc(CCC(C)(C)N2Cc3cc4c(cc3C2)OCO4)ccc1O [compound 29]	6
C[C@H](CCc1ccc(O)c(OC(F)(F)F)c1)N1Cc2ccc(F)cc2C1 [compound 31]	6
CC(C)(CCc1ccc(F)cc1)N1Cc2cccc(F)c2C1 [compound 33]	9
COc1cc2c(cc1OC)CN(C(C)(C)CCc1ccc(F)cc1)C2 [compound 34]	46
CC(C)(CCc1ccc(F)cc1)N1Cc2ccc(F)cc2C1 [compound 35]	9
CC(C)(CCc1ccc(F)cc1)N1Cc2cc3c(cc2C1)OCO3 [compound 36]	47
CC(C)Oc1cc(CC[C@@H](C)N2Cc3ccc(F)cc3C2)ccc1O [compound 37]	5
CC(C)Oc1ccc(CC[C@@H](C)N2Cc3cc4c(cc3C2)OCO4)cc1OC(C)C [compound 40]	6
C[C@H](CCc1ccc(OC(=O)N(C)C)c(OC(F)(F)F)c1)N1Cc2cccc(F)c2C1 [compound 41]	9
CC(C)Oc1ccc(CCC(C)(C)N2Cc3ccc(F)cc3C2)cc1OC(C)C [compound 42]	14
C[C@H](CCc1ccc(OC(=O)N(C)C)c(OC(F)(F)F)c1)N1Cc2ccc(F)cc2C1 [compound 43]	5
COc1cc(CCC(C)(C)N2Cc3cccc(F)c3C2)ccc1OCCO [compound 44]	29
COc1cc(CCC(C)(C)N2Cc3ccc(F)cc3C2)ccc1OCCO [compound 45]	96
COC[C@H](CCc1ccc(Cl)c(Cl)c1)N1Cc2ccc(F)cc2C1 [compound 46]	5
COc1cc(CCC(C)(C)N2Cc3cc4c(cc3C2)OCO4)ccc1OCCO [compound 47]	91
COc1cc(CCC(C)(C)N2Cc3ccc(F)cc3C2)ccc1OC(=O)N(C)C [compound 50]	33
COc1cc(CC[C@@H](C)N2Cc3cccc(F)c3C2)ccc1OCCO [compound 51]	66
COc1cc(CC[C@@H](C)N2Cc3cc4c(cc3C2)OCO4)ccc1OCCO [compound 52]	97
COc1cc(CCC(C)(C)N2Cc3cccc(F)c3C2)ccc1O [compound 53]	21
CC(C)(CCc1ccc(O)c(OC(F)(F)F)c1)N1Cc2cccc(F)c2C1 [compound 54]	12

Compound	Mouse liver microsomes, MLM t½ [min]
CC(C)(CCc1ccc(O)c(OC(F)(F)F)c1)N1Cc2c(F)ccc(F)c2C1 [compound 55]	34
CN(C)C(=O)c1cccc2c1CN(C(C)(C)CCc1ccc(O)c(OC(F)(F)F)c1)C2 [compound 57]	26
CN(C)C(=O)c1cccc2c1CN(C(C)(C)CCc1ccc(O)c(OC(C)(C)C)c1)C2 [compound 59]	8
CC(C)(C)Oc1cc(CCC(C)(C)N2Cc3ccc(S(C)(=O)=O)cc3C2)ccc1O [compound 62]	45
C[C@H](CCc1ccc(O)c(OC(C)(C)C)c1)N1Cc2ccc(S(C)(=O)=O)cc2C1 [compound 63]	31
COc1cc(CCC(C)(C)N2Cc3cccc(S(C)(=O)=O)c3C2)ccc1O [compound 64]	52
COc1cc(CC[C@@H](C)N2Cc3cccc(S(C)(=O)=O)c3C2)ccc1O [compound 65]	41
CC(C)(C)Oc1cc(CCC(C)(C)N2Cc3cccc(S(C)(=O)=O)c3C2)ccc1O [compound 66]	10
CC(C)(CCc1ccc(O)c(OC(F)(F)F)c1)N1Cc2cccc(S(C)(=O)=O)c2C1 [compound 67]	39
CC(C)Oc1cc(CC[C@@H](C)N2Cc3ccc(S(C)(=O)=O)cc3C2)ccc1O [compound 69]	75
CC(C)Oc1cc(CCC(C)(C)N2Cc3ccc(S(C)(=O)=O)cc3C2)ccc1O [compound 70]	79
CC(C)(C)Oc1cc(CCC(C)(C)N2Cc3c(F)ccc(F)c3C2)ccc1O [compound 74]	21
COc1cc(CCC(C)(C)N2Cc3cccc(C(=O)NCCN(C)C)c3C2)ccc1O [compound 78]	450
COc1cc(CCC(C)(C)N2Cc3cccc(C(=O)N4CCOCC4)c3C2)ccc1O [compound 80]	45
COc1cc(CCC(C)(C)N2Cc3cccc(C(=O)N(C)CCN(C)C)c3C2)ccc1O [compound 81]	88
COc1cc(CCC(C)(C)N2Cc3cccc(C(=O)N4CCN(C)CC4)c3C2)ccc1O [compound 82]	27
COCCN(C)C(=O)c1cccc2c1CN(C(C)(C)CCc1ccc(O)c(OC)c1)C2 [compound 86]	19
CC(C)COc1cc(CCC(C)(C)N2Cc3ccc(S(C)(=O)=O)cc3C2)ccc1O [compound 87]	86
CC(C)COc1cc(CCC(C)(C)N2Cc3cccc(F)c3C2)ccc1O [compound 88]	28
CC(C)COc1cc(CCC(C)(C)N2Cc3cccc(C(=O)N(C)C)c3C2)ccc1O [compound 89]	17
CC(C)COc1cc(CCC(C)(C)N2Cc3cccc(C(=O)N4CCOCC4)c3C2)ccc1O [compound 90]	9
CC(C)COc1cc(CCC(C)(C)N2Cc3cccc(C(=O)N4CCN(C)CC4)c3C2)ccc1O [compound 91]	6
CC(=O)N1CCN(C(=O)c2cccc3c2CN(C(C)(C)CCc2ccc(O)c(OCC(C)C)c2)C3)CC1 [compound 92]	7
